Tested on: 935938-334-R-J1-PDC complex spheroid viability
Assay: Anticancer human tumor 935938-334-R-J1-PDC patient-derived small intestine adenocarcinoma cell line growth inhibition [POLQ]
Conditions: for IC50: curve of first compound; for viability, T/C: stronger effect = lower value
In short: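 Complex spheroid viability model combining PDC tumour cells with endothelial (HUVEC) and MSC stromal cells. Novobiocin, ART-558 or RP6685 were tested singly and in combination with standard and investigational anticancer drugs. Each was titrated in half-log steps from near clinical Cmax, or from 10 microM where Cmax was unknown.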

[1] = second compound 0.0316 µM, first compound 0.00316 µM
[2] = second compound 0.0316 µM, first compound 0.01 µM
[3] = second compound 0.0316 µM, first compound 0.0316 µM
[4] = second compound 0.0316 µM, first compound 0.1 µM
[5] = second compound 0.1 µM, first compound 0.00316 µM
[6] = second compound 0.1 µM, first compound 0.01 µM
[7] = second compound 0.1 µM, first compound 0.0316 µM
[8] = second compound 0.1 µM, first compound 0.1 µM
[9] = second compound 0.316 µM, first compound 0.00316 µM
[10] = second compound 0.316 µM, first compound 0.01 µM
[11] = second compound 0.316 µM, first compound 0.0316 µM
[12] = second compound 0.316 µM, first compound 0.1 µM
[13] = second compound 1 µM, first compound 0.00316 µM
[14] = second compound 1 µM, first compound 0.01 µM
[15] = second compound 1 µM, first compound 0.0316 µM
[16] = second compound 1 µM, first compound 0.1 µM
[17] = second compound 3.16 µM, first compound 0.00316 µM
[18] = second compound 3.16 µM, first compound 0.01 µM
[19] = second compound 3.16 µM, first compound 0.0316 µM
[20] = second compound 3.16 µM, first compound 0.1 µM
[21] = second compound 10 µM, first compound 0.00316 µM
[22] = second compound 10 µM, first compound 0.01 µM
[23] = second compound 10 µM, first compound 0.0316 µM
[24] = second compound 10 µM, first compound 0.1 µM
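Further: spheroids exposed to drugs for seven days before viability read.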
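Wherever viability, T/C is given: 100% = DMSO vehicle control wells.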

For `Cn1ncnc1[C@H]1c2n[nH]c(=O)c3cc(F)cc(c23)N[C@@H]1c1ccc(F)cc1` + Nc1ccc(C#CCN(C(=O)Cc2ncc(C(F)(F)F)cc2C(F)(F)F)c2ccc(F)cc2)nn1, the IC50 (second compound 0.0316 µM) was > 100 nM, the IC50 (second compound 0.1 µM) was > 100 nM and the IC50 (second compound 0.316 µM) was > 100 nM. The IC50 (second compound 1 µM) was > 100 nM, the IC50 (second compound 3.16 µM) was > 100 nM and the IC50 (second compound 10 µM) was > 100 nM. For the same molecule, the viability, T/C (second compound 0.0316 µM, first compound 0.000316 µM) was 98%, the viability, T/C (second compound 0.0316 µM, first compound 0.001 µM) was 106% and the viability, T/C [1] was 94.5%. For the same molecule, the viability, T/C [2] was 73.1%, the viability, T/C [3] was 83.9% and the viability, T/C [4] was 101%. For the same molecule, the viability, T/C (second compound 0.1 µM, first compound 0.000316 µM) was 68%, the viability, T/C (second compound 0.1 µM, first compound 0.001 µM) was 103% and the viability, T/C [5] was 88.4%. For the same molecule, the viability, T/C [6] was 97.9%, the viability, T/C [7] was 86.5% and the viability, T/C [8] was 92.9%. It also gave a viability, T/C (second compound 0.316 µM, first compound 0.000316 µM) of 102%, a viability, T/C (second compound 0.316 µM, first compound 0.001 µM) of 104% and a viability, T/C [9] of 107%. For the same molecule, the viability, T/C [10] was 105%, the viability, T/C [11] was 106% and the viability, T/C [12] was 76.9%. The viability, T/C (second compound 1 µM, first compound 0.000316 µM) was 95.5%, the viability, T/C (second compound 1 µM, first compound 0.001 µM) was 85.5% and the viability, T/C [13] was 91.9%. It also gave a viability, T/C [14] of 79%, a viability, T/C [15] of 96.6% and a viability, T/C [16] of 85.1%. The viability, T/C (second compound 3.16 µM, first compound 0.000316 µM) was 69%, the viability, T/C (second compound 3.16 µM, first compound 0.001 µM) was 81.4% and the viability, T/C [17] was 88.1%. The viability, T/C [18] was 86.9%, the viability, T/C [19] was 85.1% and the viability, T/C [20] was 111%. The viability, T/C (second compound 10 µM, first compound 0.000316 µM) was 107%, the viability, T/C (second compound 10 µM, first compound 0.001 µM) was 106% and the viability, T/C [21] was 106%. For the same molecule, the viability, T/C [22] was 94.3%, the viability, T/C [23] was 99.5% and the viability, T/C [24] was 92%.

For `COc1cccc(OCCCN)c1-c1cc(Nc2cnc(C#N)cn2)n[nH]1` + Cc1cccc(N(C)C(=O)C2C(O)CCN2c2nc(C)cc(C(F)(F)F)c2C#N)c1, the IC50 (second compound 0.0316 µM) was 55.9 nM, the IC50 (second compound 0.1 µM) was 50.9 nM and the IC50 (second compound 0.316 µM) was 40.9 nM. It also gave an IC50 (second compound 1 µM) of 43.7 nM, an IC50 (second compound 3.16 µM) of 40 nM and an IC50 (second compound 10 µM) of 38.5 nM. For the same molecule, the viability, T/C [1] was 118%, the viability, T/C [2] was 94.9% and the viability, T/C [3] was 65.2%. It also gave a viability, T/C [4] of 36.8%, a viability, T/C (second compound 0.0316 µM, first compound 0.316 µM) of 12.2% and a viability, T/C (second compound 0.0316 µM, first compound 1 µM) of 8.59%. The viability, T/C [5] was 101%, the viability, T/C [6] was 75.2% and the viability, T/C [7] was 69.6%. For the same molecule, the viability, T/C [8] was 31%, the viability, T/C (second compound 0.1 µM, first compound 0.316 µM) was 9.36% and the viability, T/C (second compound 0.1 µM, first compound 1 µM) was 10.3%. The viability, T/C [9] was 96%, the viability, T/C [10] was 95.2% and the viability, T/C [11] was 48.1%. It also gave a viability, T/C [12] of 35.3%, a viability, T/C (second compound 0.316 µM, first compound 0.316 µM) of 10.1% and a viability, T/C (second compound 0.316 µM, first compound 1 µM) of 10.6%. The viability, T/C [13] was 106%, the viability, T/C [14] was 86% and the viability, T/C [15] was 60.7%. For the same molecule, the viability, T/C [16] was 28.5%, the viability, T/C (second compound 1 µM, first compound 0.316 µM) was 9.11% and the viability, T/C (second compound 1 µM, first compound 1 µM) was 9.21%. It also gave a viability, T/C [17] of 138%, a viability, T/C [18] of 90.6% and a viability, T/C [19] of 69.5%. It also gave a viability, T/C [20] of 15.7%, a viability, T/C (second compound 3.16 µM, first compound 0.316 µM) of 8.96% and a viability, T/C (second compound 3.16 µM, first compound 1 µM) of 11.1%. For the same molecule, the viability, T/C [21] was 96.5%, the viability, T/C [22] was 94.8% and the viability, T/C [23] was 57.9%. For the same molecule, the viability, T/C [24] was 11.6%, the viability, T/C (second compound 10 µM, first compound 0.316 µM) was 11.9% and the viability, T/C (second compound 10 µM, first compound 1 µM) was 9.17%.

— PubChem BioAssay AID1963829 (Molecular Pharmacology Branch, DTP, NCI, 2024)
